Holding throughout (format): cell-based, human
The test system of assay [1] is SH-SY5Y cells. The assay is described as follows: Autophagic flux with tandem reporter mCherry-GFP-LC3B. The note with it: Aβ 1 µM, 24 h, n = 8, N = 4; for Mander's overlap coefficient, R, of Aβ with GFP-positive vesicles / Mander's overlap coefficient, R, of Aβ with mCherry-positive vesicles: mean ± S.D. On the procedure:
SH-SY5Y cells were transfected with either GFP-LC3-LC3Δ-RFP or mCherry-GFP-LC3B tandem constructs (0.5 μg/well +1 µl transfection reagent − 24 well plate) with Lipofectamine 2000 (Life Technologies, 11668019) in OptiMEM (Life Technologies, 11058021) in DMEM/F-12, FCS^− PS^− media. After 8 h, FCS^− PS^− media was changed to normal culture media, respectively. Transfection efficiency was around 50–60% in all analyzed coverslips.
SH-SY5Y cells seeded on D1, were treated with Aβ variants (1 μM) on D3 in DMEM/F-12 media without serum and antibiotics. Control treatment included treatment with equal volume of 10 mM NaOH solution used for preparing the Aβ stock solutions, in respective cell culture medium. SH-SY5Y cells, after 16 h of transient expression of the reporter constructs, were treated with different Aβ variants, autophagy modulator substrates and respective controls in DMEM/F-12, FCS^− PS^− media for the mentioned time points. After treatment, cells were washed twice with PBS and with 0.025% trypsin-EDTA in PBS to get rid of cell bound Aβ, followed by subsequent washings with PBS again. Cells were either collected by scraping using a cell-scraper or fixed with 4% PFA-PBS for 15 min at RT, for further immunocytochemistry experiments. Collected treatment media was centrifuged at 1000 g for 5 min, pellet discarded and supernatant frozen at −20°C until further usage.
All images were processed and analyzed using Fiji ImageJ software. Mander’s overlap coefficient (Figure 1B–D; Figure 2B–F; Figure 4B–F; Figure 6E; S2B, D; S4B, D; S6D, F) analysis was done using the colocalization processing module of the Fiji ImageJ plugin. Distance from the plaque core (Figure 1B) was measured using the concentric circles plugin module. Fluorescence intensity of the green channel (Figure S3A-B), and the number of neurons positive for Aβ signals (Figure S3-D) were quantified using the processing module of Keyence software. Intensity analysis (Figure S4E-I) was performed by manually selecting the region of interest (ROI) and measuring the intensity of the individual channels in the selected area. RFP/GFP (Figure 6A) and LysoSensor Green/Blue (Figure 7A) ratiometric images were created by using the image calculator module. Intensity of green and red channel for a particular ROI was calculated and ratios of the individual values were computed (Figure 6B and S7A). For computing the number of mCherry^+GFP^± vesicles or per cell (Figure 6D and S7B), cell outline was drawn manually and number of vesicles per cell (nucleus count – DAPI) was calculated. Similarly, the number of perinuclear and peripheral LAMP2-positive lysosomes or percentage of LAMP2 compartments containing Aβ was computed using the concentric circle processing module (Figure 7D). Due to slight variability in transfection efficiency or the number of cells in different experimental set-ups, the readings from each experiment were averaged and normalized to the control cells from that particular set. Average values from each experiment were normalized to the respective controls in the same set. Values from independent experiments were then computed and values are represented as independent data points.

The subject of assay [2] is SH-SY5Y cells. The assay is described as follows: Number and perinuclear/peripheral positioning of LAMP2-positive compartments. The note with it: Aβ 1 µM, 24 h. The procedure: Cells were cultured on glass coverslips and treated similarly as mentioned above. After treatment, cells were subsequently washed and fixed with 4% paraformaldehyde in PBS for 15 min. Cells were then permeabilized with 0.25% Triton X-100 in PBS for 1 min, followed by blocking with 2.5% BSA, 0.125% Triton X-100 in PBS. Incubation with primary antibodies (respective dilutions in blocking buffer) was performed overnight at 4°C. Next day, coverslips were washed and incubated with respective secondary antibodies (respective dilutions in blocking buffer) for 1 h at RT. Removal of the secondary antibody solution was followed by washes with PBS (thrice) and distilled water (once) and coverslips were mounted on the slides using ImmuMount (ThermoFisher Scientific – Shandon Epredia™, 9990412). For surface staining without permeabilization, Triton X-100 was not used in any solution during the staining procedure.
All images were processed and analyzed using Fiji ImageJ software. Mander’s overlap coefficient (Figure 1B–D; Figure 2B–F; Figure 4B–F; Figure 6E; S2B, D; S4B, D; S6D, F) analysis was done using the colocalization processing module of the Fiji ImageJ plugin. Distance from the plaque core (Figure 1B) was measured using the concentric circles plugin module. Fluorescence intensity of the green channel (Figure S3A-B), and the number of neurons positive for Aβ signals (Figure S3-D) were quantified using the processing module of Keyence software. […] Intensity of green and red channel for a particular ROI was calculated and ratios of the individual values were computed (Figure 6B and S7A). For computing the number of mCherry^+GFP^± vesicles or per cell (Figure 6D and S7B), cell outline was drawn manually and number of vesicles per cell (nucleus count – DAPI) was calculated. […] Due to slight variability in transfection efficiency or the number of cells in different experimental set-ups, the readings from each experiment were averaged and normalized to the control cells from that particular set. […]

The subject of assay [3] is CTSD and CTSE in SH-SY5Y cells. The assay is described as follows: CTSD and CTSE activity assay with fluorogenic substrate. The note with it: Aβ 1 µM, 24 h, per µg total cellular protein, compared to control cells. On the procedure: Cells were seeded in a 96-well plate (12000 cells/well, D1) and treated with different Aβ variants (primary cortical neurons, DIV14–500 nM, 4 h; SH-SY5Y cells, D3–1 μM, 24 h) in neurobasal, FCS-/PS- media. After the treatment, the supernatant was discarded, and cells were washed with PBS once. Cells were lysed by solubilizing the plasma membrane and intracellular membranes by adding 50 μL of 200 μg/mL digitonin in acetate buffer to the wells followed by incubation on ice for 15 min. Additionally, 50 μL of the Omnicathepsin D & E fluorogenic substrate (Enzo Life sciences, BML-P145) in sodium acetate buffer was added to the lysates in the wells for a final concentration of 30 μM of substrate and 10 mM DTT. Plate was incubated for 25 min at RT and the reaction was stopped by addition of 10 µl of ethanol. The relative amount of substrate cleavage in each well was computed using multiplate reader at λEx 380 nm and λEm 460 nm. Values were normalized and represented as fold-change with respect to control cells. Graphs in Figure 7G and S7F represent data from 3 independent experiments (n = 9).

The source of these data is publication PMC10761119, “Phosphorylation-state dependent intraneuronal sorting of Aβ differentially impairs autophagy and the endo-lysosomal system” (Autophagy, 2023).

Take “amyloid-β phosphorylated at serine residue 26 [p-Ser26Aβ]”: in the assay on SH-SY5Y cells [1], the “Mander's overlap coefficient, R, of Aβ with GFP-positive vesicles” value is listed as 0.30 ± 0.05; the “Mander's overlap coefficient, R, of Aβ with mCherry-positive vesicles” value stood at 0.70 ± 0.05; the “Number of mCherry+ GFP− vesicles per cell” value is reported as “significantly higher number”. Besides, the “Number of LAMP2-positive vesicles” value in the assay on SH-SY5Y cells [2] is “significantly increased”. The “Activity of lysosomal CTSD and CTSE” value in assay [3] is reported as “increased activity”.
Take “amyloid-β phosphorylated at serine residue 8 [p-Ser8Aβ]”: the “Number of mCherry+ GFP+ vesicles per cell” value in the assay on SH-SY5Y cells [1] (compared to control and to p-Ser26Aβ treated cells) is on record as “significantly higher”. Further, in the assay with SH-SY5Y cells [1], the “Mander's overlap coefficient, R, of Aβ with GFP-positive vesicles” value is given as 0.56 ± 0.10; the “Mander's overlap coefficient, R, of Aβ with mCherry-positive vesicles” value is reported as 0.57 ± 0.06; the “Number of mCherry+ GFP− vesicles per cell” value is on record as “significantly least”. The “Activity of lysosomal CTSD and CTSE” value in assay [3] is reported as “no significant effect”.
As for “non-phosphorylated amyloid-β [npAβ, reference compound]”, the “Ratio of mCherry:GFP fluorescence intensities” value in the assay with SH-SY5Y cells [1] (compared to control cells) was “not significantly altered”. In the assay with SH-SY5Y cells [1], the “Mander's overlap coefficient, R, of Aβ with GFP-positive vesicles” value came out at 0.40 ± 0.05 and the “Mander's overlap coefficient, R, of Aβ with mCherry-positive vesicles” value was found to be 0.61 ± 0.04. Besides, the “Number of LAMP2-positive vesicles” value in the assay on SH-SY5Y cells [2] is on record as “significantly increased”. Also, the “Ratio of perinuclear to peripheral lysosomes” value in the assay on SH-SY5Y cells [2] (LAMP2-positive compartments, perinuclear <2 µm from nucleus, control 0.61 ± 0.12, n = 12, N = 3) came to 0.99 ± 0.16.
